For one data set, the system named is SARS-CoV-2. As to conditions: read-out: IC50 of FDA-approved drugs applied in COVID-19 treatment protocols; cited from earlier work.
A short description of a further data set: in vitro. The following applies: African green monkey.
The subject of data set [1] is SARS-CoV-2 "NRC-03-nhCoV". As to the kind of experiment: microbe, parasite or virus in culture. The data set is classed as cell-based.
In a further data set the test system is MERS-CoV "NRCE-HKU270". As to the kind of experiment: microbe, parasite or virus in culture. The format is cell-based. As to conditions: for IC50: Middle East respiratory syndrome-related coronavirus, Vero C1008, read-out: Antiviral Activities MERS-CoV IC50 (µM).
Data set [2] has as its system NRC-03-nhCoV in Vero-E6 cells. As to the kind of experiment: microbe, parasite or virus in culture. As to conditions: Severe acute respiratory syndrome coronavirus 2, Vero C1008, read-out: Half maximal inhibitory concentration (IC50) against NRC-03-nhCoV. The data set is classed as cell-based, SARS-CoV-2.
[3] abbreviates: Severe acute respiratory syndrome coronavirus 2, Vero C1008, read-out: Antiviral Activities SARS-CoV-2 IC50 (µM).
[4] abbreviates: read-out: Antiviral Activities SARS-CoV-2 IC50.

Read-outs that look alike come from different tables or passages of the source. Bounds are passed on as bounds.

One may read the CC50 as the concentration that lowers cell viability or growth by half. A low value points to harm at low concentration. One may read the melting point as the temperature, or range, at which the solid turns liquid.

Consider `CC[C@H]1OC(=O)[C@H](C)[C@@H](O[C@H]2C[C@@](C)(OC)[C@@H](O)[C@H](C)O2)[C@H](C)[C@@H](O[C@@H]2O[C@H](C)C[C@H](N(C)C)[C@H]2O)[C@](C)(O)C[C@@H](C)CN(C)[C@H](C)[C@@H](O)[C@]1(C)O` [Azithromycin], for which the IC50 with SARS-CoV-2 was 2.12 µM.
`O=C1Nc2ccccc2[C@]12C[C@@H](S(=O)(=O)c1ccccc1)[C@H]1CCCN12` [Compound 4a, (1’R,3R,7a’R)-1’-(Phenylsulfonyl)-1’,2’,5’,6’,7’,7a’-hexahydrospiro[indoline-3,3’-pyrrolizin]-2-one]: the melting point is 298 °C. It took 326 µM to reach half-maximal cytotoxicity in “in vitro” (Cytotoxicity (CC50, µM)) (CC50). For the same molecule, the “Antiviral Activities SARS-CoV-2 SI (selectivity index)” value in data set [1] came to 11.24. The IC50 in data set [1] (setting [3]) was found to be 29 µM. Besides, in the data set on MERS-CoV "NRCE-HKU270", the “Antiviral Activities MERS-CoV SI (selectivity index)” value was 5.25 and the IC50 came to 62 µM.
Turning to `O=C1Nc2ccc(Cl)cc2[C@]12C[C@@H](S(=O)(=O)c1ccccc1)[C@H]1CSCN12` [Compound 4b, (3R,7’R,7a’R)-5-Chloro-7’-(phenylsulfonyl)-1’,6’,7’,7a’-tetrahydro-3’H-spiro[indoline-3,5’-pyrrolo [1,2-c]thiazole]-2-one], the melting point worked out at 282 °C. In the data set “in vitro” (Cytotoxicity (CC50, µM)), the half-maximal cytotoxic concentration (CC50) stood at 1040 µM. For the same molecule, in data set [1], the “Antiviral Activities SARS-CoV-2 SI (selectivity index)” value amounted to 5.38. Moreover, the IC50 in data set [1] (setting [3]) came out at 194 µM. In the data set with MERS-CoV "NRCE-HKU270", the “Antiviral Activities MERS-CoV SI (selectivity index)” value was found to be 9.95 and the IC50 is 105 µM.
Turning to `O=C1Nc2ccc([N+](=O)[O-])cc2[C@]12C[C@@H](S(=O)(=O)c1ccccc1)[C@H]1C[C@H](O)CN12` [Compound 4c, (1’R,3R,6’S,7a’R)-6’-Hydroxy-5-nitro-1’-(phenylsulfonyl)-1’,2’,5’,6’,7’,7a’-hexahydrospiro[indoline-3,3’-pyrrolizin]-2-one], half-maximal cytotoxicity in the data set “in vitro” (Cytotoxicity (CC50, µM)) (CC50) was put at 1100 µM. The IC50 was determined as 8.79 µM in data set [2], 17 µM in data set [1] (setting [3]), 18 µM in data set [1] (setting [4]) and 65 µM with MERS-CoV "NRCE-HKU270". The “Antiviral Activities MERS-CoV SI (selectivity index)” value with MERS-CoV "NRCE-HKU270" was determined as 16.84.
`O=C1Nc2ccc(Br)cc2[C@]12C[C@@H](S(=O)(=O)c1ccccc1)[C@H]1C[C@H](O)CN12` [Compound 4d, (1’R,3R,6’S,7a’R)-5-Bromo-6’-hydroxy-1’-(phenylsulfonyl)-1’,2’,5’,6’,7’,7a’-hexahydrospiro[indoline-3,3’-pyrrolizin]-2-one] returned a melting point of 220 °C. For the same molecule, in the data set “in vitro” (Cytotoxicity (CC50, µM)), the midpoint of cytotoxicity, the CC50, lay at 206 µM. Moreover, the “Antiviral Activities SARS-CoV-2 SI (selectivity index)” value in data set [1] was 8.58. Also, the IC50 in data set [1] (setting [3]) was found to be 24 µM. Moreover, in the data set with MERS-CoV "NRCE-HKU270", the “Antiviral Activities MERS-CoV SI (selectivity index)” value amounted to 8.95 and the IC50 was determined as 23 µM.
With `O=C1Nc2ccc([N+](=O)[O-])cc2[C@]12C[C@@H](S(=O)(=O)c1ccccc1)[C@H]1CSCN12` [Compound 4e, (3R,7’R,7a’R)-5-Nitro-7’-(phenylsulfonyl)-1’,6’,7’,7a’-tetrahydro-3’H-spiro[indoline-3,5’-pyrrolo [1,2-c]thiazole]-2-one], the melting point is 95 °C. Moreover, in “in vitro” (Cytotoxicity (CC50, µM)), the CC50 worked out at 289 µM. Also, in data set [1], the “Antiviral Activities SARS-CoV-2 SI (selectivity index)” value was 17. Moreover, the IC50 in data set [1] (setting [3]) came to 18 µM. Also, the IC50 in data set [1] (setting [4]) was 17 µM. Moreover, in the data set with MERS-CoV "NRCE-HKU270", the “Antiviral Activities MERS-CoV SI (selectivity index)” value was determined as 3.90 and the IC50 was 74 µM.
`COc1ccc2c(c1)[C@]1(C[C@@H](S(=O)(=O)c3ccccc3)[C@H]3CSCN31)C(=O)N2` [Compound 4f, (3R,7’R,7a’R)-5-Methoxy-7’-(phenylsulfonyl)-1’,6’,7’,7a’-tetrahydro-3’H-spiro[indoline-3,5’-pyrrolo [1,2-c]thiazole]-2-one] gave a melting point of 105 °C. For the same molecule, the CC50 in “in vitro” (Cytotoxicity (CC50, µM)) was 345 µM. Further, the “Antiviral Activities SARS-CoV-2 SI (selectivity index)” value in data set [1] is <1. The IC50 in data set [1] (setting [3]) amounted to 2250 µM. Further, in the data set with MERS-CoV "NRCE-HKU270", the “Antiviral Activities MERS-CoV SI (selectivity index)” value was determined as 3.92 and the IC50 was found to be 88 µM.
On to `O=C1Nc2ccc(Cl)cc2[C@]12C[C@@H](S(=O)(=O)c1ccccc1)[C@H]1CCCN12` [Compound 4g, (1’R,3R,7a’R)-5-Chloro-1’-(phenylsulfonyl)-1’,2’,5’,6’,7’,7a’-hexahydrospiro[indoline-3,3’-pyrrolizin]-2-one], for which the melting point amounted to 254 °C. In the data set “in vitro” (Cytotoxicity (CC50, µM)), this molecule had a CC50 of 405 µM. In data set [1], the “Antiviral Activities SARS-CoV-2 SI (selectivity index)” value stood at 1. Besides, in data set [1] (setting [3]), the IC50 was 405 µM. In addition, in the data set on MERS-CoV "NRCE-HKU270", the “Antiviral Activities MERS-CoV SI (selectivity index)” value was 3.97 and the IC50 came out at 101 µM.
Molecule `COc1ccc2c(c1)[C@]1(C[C@@H](S(=O)(=O)c3ccccc3)[C@H]3CCCN31)C(=O)N2` [Compound 4h, (1’R,3R,7a’R)-5-Methoxy-1’-(phenylsulfonyl)-1’,2’,5’,6’,7’,7a’-hexahydrospiro[indoline-3,3’-pyrrolizin]-2-one] registered a melting point of 240 °C. The CC50 in “in vitro” (Cytotoxicity (CC50, µM)) was found to be 571 µM. In data set [1], the “Antiviral Activities SARS-CoV-2 SI (selectivity index)” value is reported as 15.43. The IC50 in data set [1] (setting [3]) is 37 µM. Also, in the data set with MERS-CoV "NRCE-HKU270", the “Antiviral Activities MERS-CoV SI (selectivity index)” value was 38.06 and the IC50 came to 15 µM.
As to `O=C1Nc2ccccc2[C@]12C[C@@H](S(=O)(=O)c1ccccc1)[C@H]1CSCN12` [Compound 4i, (3R,7’R,7a’R)-7’-(Phenylsulfonyl)-1’,6’,7’,7a’-tetrahydro-3’H-spiro[indoline-3,5’-pyrrolo [1,2-c]thiazole]-2-one], the CC50 in the data set “in vitro” (Cytotoxicity (CC50, µM)) turned out to be 1990 µM. Further, the IC50 in data set [2] came to 14.7 µM; in data set [1] (setting [3]) it was 34 µM; in the data set on MERS-CoV "NRCE-HKU270", 11 µM.
Molecule `O=C1Nc2ccc(Br)cc2[C@]12C[C@@H](S(=O)(=O)c1ccccc1)[C@H]1CCCN12` [Compound 4j, (1’R,3R,7a’R)-5-Bromo-1’-(phenylsulfonyl)-1’,2’,5’,6’,7’,7a’-hexahydrospiro[indoline-3,3’-pyrrolizin]-2-one] showed a melting point of 250 °C. In “in vitro” (Cytotoxicity (CC50, µM)), this molecule gave a CC50 of 200 µM. In data set [1], the “Antiviral Activities SARS-CoV-2 SI (selectivity index)” value was determined as 1.01. For the same molecule, in data set [1] (setting [3]), the IC50 amounted to 197 µM. Further, in the data set with MERS-CoV "NRCE-HKU270", the “Antiviral Activities MERS-CoV SI (selectivity index)” value is recorded as <1 and the IC50 is 376 µM.
Consider `CN1C(=O)[C@@]2(C[C@@H](S(=O)(=O)c3ccccc3)[C@H]3CCCN32)c2ccccc21` [Compound 4k, (1’R,3R,7a’R)-1-Methyl-1’-(phenylsulfonyl)-1’,2’,5’,6’,7’,7a’-hexahydrospiro[indoline-3,3’-pyrrolizin]-2-one], for which the CC50 in “in vitro” (Cytotoxicity (CC50, µM)) stood at 883 µM; in the data set “in vitro” (Half maximal cytotoxic concentration (CC50)) it was 882 µM. In addition, the IC50 stood at 5.98 µM in data set [2], 27 µM in data set [1] (setting [3]) and 66 µM in the data set with MERS-CoV "NRCE-HKU270". Further, in the data set on MERS-CoV "NRCE-HKU270", the “Antiviral Activities MERS-CoV SI (selectivity index)” value is listed as 13.37.
Molecule `O=C1N(CCBr)c2ccccc2[C@]12C[C@@H](S(=O)(=O)c1ccccc1)[C@H]1CCCN12` [Compound 4l, (1’R,3R,7a’R)-1-(2-Bromoethyl)-1’-(phenylsulfonyl)-1’,2’,5’,6’,7’,7a’-hexahydrospiro[indoline-3,3’-pyrrolizin]-2-one] showed a melting point of 70 °C. In “in vitro” (Cytotoxicity (CC50, µM)), this molecule yielded a CC50 of 206 µM. For the same molecule, in data set [1], the “Antiviral Activities SARS-CoV-2 SI (selectivity index)” value was determined as 1.92. The IC50 in data set [1] (setting [3]) came to 107 µM. In the data set with MERS-CoV "NRCE-HKU270", the “Antiviral Activities MERS-CoV SI (selectivity index)” value was found to be 1.41 and the IC50 is 146 µM.
Regarding `O=C1Nc2cc(Cl)ccc2[C@]12C[C@@H](S(=O)(=O)c1ccccc1)[C@H]1CCCN12` [Compound 4m], the CC50 in the data set “in vitro” (Cytotoxicity (CC50, µM)) came to 225 µM. The “Antiviral Activities SARS-CoV-2 SI (selectivity index)” value in data set [1] is <1. In addition, the figures for the IC50 (in data set [1] (setting [3]); in the data set on MERS-CoV "NRCE-HKU270") were 305 µM and 191 µM, respectively. Moreover, the “Antiviral Activities MERS-CoV SI (selectivity index)” value in the data set on MERS-CoV "NRCE-HKU270" turned out to be 1.17.
With `O=C1Nc2cc(Cl)ccc2[C@]12C[C@@H](S(=O)(=O)c1ccccc1)[C@H]1CSCN12` [Compound 4n, (3R,7’R,7a’R)-6-Chloro-7’-(phenylsulfonyl)-1’,6’,7’,7a’-tetrahydro-3’H-spiro[indoline-3,5’-pyrrolo [1,2-c]thiazole]-2-one], the CC50 in the data set “in vitro” (Cytotoxicity (CC50, µM)) was 222 µM. The IC50 was 667 µM in data set [1] (setting [3]) and 15 µM in the data set with MERS-CoV "NRCE-HKU270".
On to `CCC(CC)COC(=O)[C@H](C)N[P@](=O)(OC[C@H]1O[C@@](C#N)(c2ccc3c(N)ncnn23)[C@H](O)[C@@H]1O)Oc1ccccc1` [Remdesivir, reference compound], for which half-maximal cytotoxicity in “in vitro” (Cytotoxicity (CC50, µM)) (CC50) was put at 473 µM. Besides, the IC50 is 6.72 µM in data set [2], 6.72 µM in data set [1] (setting [3]) and 2.74 µM in the data set on MERS-CoV "NRCE-HKU270". In addition, the “Antiviral Activities SARS-CoV-2 SI (selectivity index)” value in data set [1] was 70.40. Further, in the data set on MERS-CoV "NRCE-HKU270", the “Antiviral Activities MERS-CoV SI (selectivity index)” value came to 172.66.
Consider `NC(=O)c1ncn([C@@H]2O[C@H](CO)[C@@H](O)[C@H]2O)n1` [Ribavirin], for which the IC50 with SARS-CoV-2 is 70 µM.
Turning to `CC(C)c1nc(CN(C)C(=O)N[C@H](C(=O)N[C@@H](Cc2ccccc2)C[C@H](O)[C@H](Cc2ccccc2)NC(=O)OCc2cncs2)C(C)C)cs1` [Ritonavir], the IC50 in the data set with SARS-CoV-2 was ≥ 100 µM.
